We go through 1 compound from patent US12503440B2, “Nitroxoline derivative, preparation method therefor, and use thereof” (Jiangsu Yahong Meditech Co., Ltd., priority 2020, dated 2025).

In brackets after ≈: the same amount, converted by molar mass.

What all share (assay type): cell-based
Assay [1] has as its system Endothelial cell line HUVEC. Briefly: Inhibitory activity on cells, CellTiter-Glo viability, 72 h. The following applies: Homo sapiens. From the text: (§1) • HUVEC (purchased from Allcells Biological Technology (Shanghai) Co., Ltd.); UM-UC-3 (ATCC); LNCaP Clone FGC (ATCC); RM-1 (purchased from Nanjing Cobioer Biosciences Co., Ltd.) 2. Reagents • Endothelial cell complete medium (Allcells, H-004) • Medium RPMI1640 (ATCC, 30-2001) • Medium EMEM (ATCC, 30-2003) • Medium DMEM (Gibco, 12430-054) • Fetal bovine serum (Gibco, 10091148) • Penicillin-streptomycin double anti-body (Gibco, S110JV) • DPBS (Gibco, 14190-144) • CellTiter-Glo® kit (Promega, G7573) • Trypsin (0.25%), phenol red (Gibco, 25200-056) • DMSO (Sigma, D2650) 3. Instruments • Biological safety cabinet (Suzhou Antai Airtech Co., Ltd., BSC-1300A II) • Inverted microscope (Nikon, CKX53) • Automated cell counter (Life Technologies, countess II) • Multifunctional microplate reader (Biotek, H1FM) • Shaker (Hangzhou Allsheng Instruments Co., Ltd., OS-100) • GraphPad Prism 5.0 software • XLFIT 5.3 (Inforstack Shanghai Co., Ltd.) 4. Test Method
(§2) In this test method, the following experiments were carried out in a biological safety cabinet, and the specific steps are as follows: • (1) On the first day, the cells were seeded in a 96-well plate, and the previous medium was poured off. 5 mL of DPBS was added to wash the cells, and then removed by a pipette. Then, 1 mL of trypsin (0.25%) was added, and the plate was placed in a cell culture incubator at 37° C., 5% CO2 for digestion, and taken out after about 2 to 5 minutes. New corresponding medium was added, and pipetted to resuspend the cells evenly, and the cells were then counted with an automated cell counter.
(§3) The digestion was observed using an inverted microscope.
(§4) Regarding to HUVEC, the medium used was endothelial cell complete medium; regarding to UM-UC-3, the medium used was 89v % EMEM+10v % fetal bovine serum+1 v % penicillin-streptomycin double anti-body; regarding to LNcaP Clone FGC, the medium used was 89v % RPM11640+10v % fetal bovine serum+1 v % penicillin-streptomycin double anti-body; and regarding to RM-1, the medium used was 89v % DMEM+10v % fetal bovine serum+1v % penicillin-streptomycin double anti-body. • (2) HUVEC cells were seeded in columns 1 to 11 of a 96-well plate (Corning, Cat. No. 3610) at a density of 2000 cells per well in 100 μL of medium, and the medium free of cell was added to the wells of column 12. The other three types of cells were also seeded, wherein UM-UC-3 and RM-1 cells were seeded at a density of 3000 cells per well, and LNCap Clone FGC cells were seeded at a density of 5000 cells per well. Then, the plate was placed in an incubator at 37° C., 5% CO2 for 24 hours. • (3) On the second day, the compounds of the present invention and the reference drug nitroxoline (obtained according to the preparation method disclosed in the prior art) were diluted in gradient (2.5 folds, started at 100 μmol) to obtain 8 dose points (there were a total of 8 columns of wells; the first column of wells had the highest concentration, the concentration decreased in turn, and the last column of wells had the lowest concentration). 10 uL of the compound diluted in gradient was added to the 100 μL of cells in column 1 to column 10 with an 8-channel pipette. 10 μL of the corresponding medium containing 0.33v % DMSO was added to column 11 and column 12. The plate was incubated in an incubator at 37° C., 5% CO2 for 72 hours (note: column 11 was used as MAX well with cells and no compounds; and column 12 was used as MIN well with no cells and no compounds). • (4) After treating with the compounds of the present invention for 72 hours, the cell viability detection reagents in the above CellTiter-Glo® kit were added to the 96-well plate at 50 μL per well according to the instructions. […]

Assay [2] has as its system Mouse prostate cancer cell line RM-1. Briefly: Inhibitory activity on cancer cells, CellTiter-Glo viability, 72 h. Conditions: RM-1, 72 h.
Text: as §1, §2, §3, §4

Assay [3] deals with Bladder cancer cell line UM-UC-3. Described as above. Conditions: Homo sapiens, UMUC3, UM-UC-3, 72 h.
Text: as §1, §2, §3, §4

For assay [4], the system named is Prostate cancer cell line LNcaP Clone FGC. The description is as above. Conditions: Homo sapiens.
Text: as §1, §2, §3, §4

Another assay has as its system Acinetobacter baumannii. Description: Bacteriostatic activity, micro broth dilution MIC (CLSI). The following applies: 20 hours. As to the method: (§5) The purpose of this test is to determine the bacteriostatic activity of the compounds of the present invention against a representative panel of strains (Gram-negative bacteria: […] ATCC 25922, Acinetobacter baumannii ATCC 19606; Gram-positive bacteria: Staphylococcus aureus ATCC29213). Bacteriostatic activity was determined by minimum inhibitory concentration (MIC), MIC50, MIC90. This test was entrusted to Shanghai Junj Lab Co., Ltd. Except for the test drugs, all other test materials were provided by Shanghai Junj Lab Co., Ltd.
(§6) The tested bacteria were several strains of clinically isolated carbapenem-resistant Escherichia coli, several strains of carbapenem-resistant Acinetobacter baumannii, several strains of methicillin-resistant Staphylococcus aureus, and several strains of sensitive Staphylococcus aureus. Duplicate strains isolated from the same patient were eliminated. There were also three quality control strains Escherichia coli ATCC 25922, Acinetobacter baumannii ATCC 19606, and Staphylococcus aureus ATCC 29213. The activity test of each compound was carried out on one or more strains of each of the above test bacteria.
(§7) According to the recommendations of relevant documents of the American Clinical and Laboratory Standards Institute (CLSI), the micro broth dilution method was used to determine the MIC of the compounds of the present invention against clinically isolated strains. The culture solution free of drug was used as the test bacteria positive control, the culture solution free of bacterial solution was used as the drug negative control, and the culture solution free of drug solution and bacterial solution was used as the blank control. • 4.1 Formulation of antibacterial drug: All the compounds of the present invention were dissolved in DMSO. The drug concentration range was 128 mg/L-0.06 mg/L. Specific method: The compounds of the present invention were successively diluted by 1:1 with DMSO to obtain an intermediate series with a range of 25600 mg/L-12.5 mg/L. 30 μL of solution from each tube of the intermediate series of each compound was added to a 3 mL/tube series of single broth tube, and mixed well to obtain an intermediate series with a range of 256 mg/L to 0.125 mg/L. The diluted series solution was added to the drug susceptibility plate line by line, 50 μL of solution per well. All ranges became investigated ranges after being mixed with an equal volume of bacterial solution: 128-0.06 mg/L. • 4.2 Culture medium: The drug susceptibility test used cation adjusted Mueller-Hinton broth (CAMHB). • 4.3 Amount of inoculum: The test bacteria cultured overnight were adjusted to 0.5 McFarland turbidity by the direct colony suspension method, and diluted 100 folds, the final inoculum amount was 10^5 CFU/mL. • 4.4 Culture conditions: The test bacteria were cultured at 35±2° C. for 20 hours in air. 5. Interpretation and Judgment of Results
(§8) The drug susceptibility test results were interpretated by reference to CLSI 2019 edition M100 29th edition criteria.
(§9) The results of drug susceptibility test were statistically analyzed by WHONET version 5.6 software.
(§10) The culture solution free of bacterial solution was used as the drug negative control, and the culture solution free of drug solution and bacterial solution was used as the blank control, wherein no bacteria grew in both solutions.

A further assay has as its system Escherichia coli. The description is as above. Conditions: 20 hours. The procedure: as §5, §6, §7, §8, §9, §10
Another assay deals with Staphylococcus aureus. Described as above. Conditions: 20 hours. As to the method:
as §5, §6, §7, §8, §9, §10

`O=[N+]([O-])c1ccc(O)c2nccc(C3CC3)c12` [Example 19, 4-cyclopropyl-5-nitroquinolin-8-ol]: the IC50 was 1300 nM in assay [1], 900 nM in assay [2], 2400 nM in assay [3] and 1900 nM in assay [4]. Besides, the MIC50 in the assay on Acinetobacter baumannii (clinical strains (carbapenem-resistant), CAMHB, read-out: Acinetobacter baumannii Clinical strain MIC50) was 8 µg/mL (≈ 34.7 µM); with Escherichia coli (clinical strains (carbapenem-resistant), CAMHB, read-out: Escherichia coli Clinical strain MIC50) it was 8 µg/mL (≈ 34.7 µM); in the assay with Staphylococcus aureus (clinical strains (methicillin-resistant and sensitive), CAMHB, read-out: Staphylococcus aureus Clinical strain MIC50), 2 µg/mL (≈ 8.69 µM). In addition, the MIC90 came out at 16 µg/mL (≈ 69.5 µM) in the assay with Acinetobacter baumannii (clinical strains (carbapenem-resistant), CAMHB, read-out: Acinetobacter baumannii Clinical strain MIC90); 16 µg/mL (≈ 69.5 µM) in the assay with Escherichia coli (clinical strains (carbapenem-resistant), CAMHB, read-out: Escherichia coli Clinical strain MIC90); 4 µg/mL (≈ 17.4 µM) with Staphylococcus aureus (clinical strains (methicillin-resistant and sensitive), CAMHB, read-out: Staphylococcus aureus Clinical strain MIC90). In addition, the MIC with Acinetobacter baumannii (standard strain ATCC19606, CAMHB) turned out to be 16 µg/mL (≈ 69.5 µM); against Escherichia coli (standard strain ATCC25922, CAMHB), 8 µg/mL (≈ 34.7 µM); in the assay on Staphylococcus aureus (standard strain ATCC29213, CAMHB), 4 µg/mL (≈ 17.4 µM).
